Publication PMC5838106, “Cathelicidin promotes inflammation by enabling binding of self-RNA to cell surface scavenger receptors” (Scientific Reports, 2018)
Where no end group is shown, it is not given here.

Columns and labels:
SR-B1 = molecular target: T1, SR-B1 (Homo sapiens, UniProt Q8WTV0); assay: Proximity ligation assay for SR-B1 and U1 RNA; assay type: cell-based; details: NHEKs, peptide 2.5 μM 10 minutes, biotinylated U1 RNA 2.5 μg/mL, 4 °C, 1 hour
T1 construct: endogenous in cells; host or cells: NHEK (primary neonatal human epidermal keratinocytes)
T1 sequence (Q8WTV0 1-509 isoform Q8WTV0-2): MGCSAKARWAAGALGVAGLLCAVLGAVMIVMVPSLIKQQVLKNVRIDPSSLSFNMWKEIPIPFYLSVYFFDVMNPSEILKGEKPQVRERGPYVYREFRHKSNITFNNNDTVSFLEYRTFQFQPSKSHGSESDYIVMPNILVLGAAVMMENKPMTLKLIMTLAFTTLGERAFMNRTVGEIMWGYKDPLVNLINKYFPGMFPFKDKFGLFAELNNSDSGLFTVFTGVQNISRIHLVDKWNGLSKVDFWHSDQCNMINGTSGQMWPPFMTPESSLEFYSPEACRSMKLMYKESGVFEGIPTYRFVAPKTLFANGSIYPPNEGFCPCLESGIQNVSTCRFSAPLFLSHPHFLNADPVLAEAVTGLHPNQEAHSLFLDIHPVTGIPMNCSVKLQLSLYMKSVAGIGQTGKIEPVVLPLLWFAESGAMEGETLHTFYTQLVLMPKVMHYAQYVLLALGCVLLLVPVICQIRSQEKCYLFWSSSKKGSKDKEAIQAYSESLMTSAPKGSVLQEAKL
Description: Figure 3 Cathelicidin enables dsRNA to associate with scavenger receptors. (a) Proximity ligation assay for SR-B1 and U1 RNA. NHEKs were cultured with various cathelicidin peptides (2.5 μM) for 10 minutes, then with biotinylated U1 RNA (2.5 μg/mL) at 4 °C for 1 hour before physical proximity of SR-B1 and U1 RNA was determined using a fluorescence-based PLA that produces a red fluorescent signal. Nuclei (blue) are counterstained with DAPI. Scale bar represents 10 μm. (b) Signal count of (a) in 5 visual fields. (c) Proximity ligation assay as in (a) but reaction is detecting proximity of LL37 and SR-A6. Scale bar represents 100 μm. (d) Signal count of proximity ligation assay performed as in (a), but between U1 RNA and the indicated scavenger receptors, each count is PLA complexes observed in 5 visual fields. (e) Skin sections from healthy subject (control), or lesional skin from a psoriasis patient (Psoriasis) were fixed and PLA performed for LL37 and SR-B1. […]
(§1) NHEKs seeded into 8 chamber slides (Thermo Fisher Scientific) were incubated with various combination of U1 RNA, poly(I:C), cathelicidin peptides, and fucoidan for 1 hour at 4 °C allowing binding, but not internalization. […] Fluorescent PLA signals were evaluated using fluorescence microscopy (described above). Signals are counted by Duolink ImageTool software version 1.0.1.2 (Sigma-aldrich).

SR-A6 = molecular target: T2, SR-A6 (Homo sapiens, UniProt Q9UEW3); assay: Proximity ligation assay for SR-A6 and U1 RNA; assay type: cell-based; details: NHEKs, peptide 2.5 μM 10 minutes, biotinylated U1 RNA 2.5 μg/mL, 4 °C, 1 hour
T2 construct: Proximity ligation assay for SR-A6 and U1; endogenous in cells; host or cells: NHEK (primary neonatal human epidermal keratinocytes)
T2 sequence (Q9UEW3 1-520): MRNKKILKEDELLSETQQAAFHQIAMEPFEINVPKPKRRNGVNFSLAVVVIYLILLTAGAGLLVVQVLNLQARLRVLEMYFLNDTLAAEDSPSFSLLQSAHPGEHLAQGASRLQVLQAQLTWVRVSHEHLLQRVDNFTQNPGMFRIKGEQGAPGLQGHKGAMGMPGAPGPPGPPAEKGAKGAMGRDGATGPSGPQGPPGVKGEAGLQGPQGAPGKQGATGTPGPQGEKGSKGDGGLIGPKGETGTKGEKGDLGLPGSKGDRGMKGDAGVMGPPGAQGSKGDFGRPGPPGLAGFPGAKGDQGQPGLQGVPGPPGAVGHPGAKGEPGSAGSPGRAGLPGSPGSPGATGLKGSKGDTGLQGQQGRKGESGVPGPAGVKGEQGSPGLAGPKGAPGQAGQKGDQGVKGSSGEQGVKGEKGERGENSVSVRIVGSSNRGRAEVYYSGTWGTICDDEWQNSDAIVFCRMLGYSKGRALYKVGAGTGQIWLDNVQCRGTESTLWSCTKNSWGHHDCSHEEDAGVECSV
Description: as §1, with “internalization. Unbound RNA was removed by washing with cold PBS. Cells were fixed with 4% PFA at 4 °C. Blocking buffer (Sigma) was used to prevent nonspecific antibody binding, and cells were incubated with two primary antibodies.” for “internalization.”, “(Sigma-aldrich). […]” for “(Sigma-aldrich).”
RNA. NHEKs were cultured with various cathelicidin peptides (2.5 µM) for 10 minutes, then with biotinylated U1 RNA (2.5 µg/mL) at 4 °C for 1 hour before physical proximity of SR-A6 and U1 RNA was determined using a fluorescence-based PLA that produces a red fluorescent signal. […] PMA-treated THP1 were cultured with various cathelicidin peptides (3 µM) for 10 minutes, then with biotinylated U1 RNA (2.5 µg/mL) at 4 °C for 1 hour before physical proximity of U1 RNA and scavenger receptors was determined using a fluorescence-based PLA, each count is PLA complexes observed in 5 visual fields. f) NHEKs cultured at 37 °C that were stained immediately after or after 5 […]

Row | close association between U1 RNA and SR-B1 (PLA, <40 nm) (SR-B1) | close association between U1 RNA and SR-A6 (PLA, <40 nm) (SR-A6) | Substance
1 | enabled close association | enabled close association | LL37
2 | enabled close association | enabled close association | LLGDFFRKSKEKIGKEFKRIVQRIKDFLRNLVPR [LL34]
